Results as given in patent US7345030B2, “Use of n-acetyl-d-aminoglycosamine in treatment of organ lesions related to toxicosis of drugs or chemicals” (priority 2003, dated 2008).

Legend:
mice = assay: Reproduction test; type: in vivo; conditions: mice fed 7 mg/kg for 3 generations
Acute toxicity test = type: in vivo
Text: (§1) The toxicological test of the compound of formula (I) includes: • 1. Acute toxicity test: including tests of oral administration, intravenous injection administration, and maximum limit amount for administration; • 2. Ames test; • 3. Micronucleus test of mouse bone marrow cell; • 4. Abnormality test of mouse sperm; • 5. Aberration test of mouse testis chromosome; • 6. Chronic lethal test; • 7. Sub-chronic toxicity (feed for 90 days) test; • 8. Traditional deformity-inducing test.

[1] = test system: Kunming mice fed with rogor; assay: Rogor poisoning test; type: in vivo; conditions: 10 mice, i.p. 5 g/100 ml aqueous solution
Experimental: 30 Kunming mice were randomly divided into two groups, i.e., 15 mice in test group (I) and 15 mice in test group (II), and another 15 mice were used as control. Each mouse was fed with methanol in a dose of 0.2 ml/20 g bodyweight. […] The mice of the test group (I) were intra-peritoneally injected with an aqueous solution of N-acetyl-D-glucosamine having a concentration of 0.1 g/ml in a dose of 0.1 ml/20 g bodyweight, just after they were fed with methanol. […] The mice of the test group (II) were intra-peritoneally injected with an aqueous solution of N-acetyl-D-glucosamine having a concentration of 0.1 g/ml in a dose of […], just after they were fed with methanol. […] 2. Rogor Poisoning Test 30 Kunming mice were randomly divided into three groups, i.e., 10 mice in control group, 10 mice in test group (I) and 10 mice in test group (II). The mice were orally fed with 10000 times diluted rogor stock solution (commercially obtained from Chongqing Agriculture Chemicals Group, 500 ml/bottle, standard: GB15583-1995) in a dose of 0.5 ml per mouse for consecutive 3 days. […] The mice of the test groups were treated by intra-peritoneal injection of an aqueous solution of N-acetyl-D-glucosamine having a concentration of 5 g/100 ml in a dose of 0.2 ml for the test group (I) and a dose of 2 ml for the test group (II). […] 3. […]

[2] = test system: Kunming mice lead poisoning models (litharge); assay: Lead poisoning test; type: in vivo
Experimental: (§2) 30 Kunming mice were randomly divided into two groups, i.e., 15 mice in test group (I) and 15 mice in test group (II), and another 15 mice were used as control. Each mouse was fed with methanol in a dose of 0.2 ml/20 g bodyweight. […] The mice of the test group (I) were intra-peritoneally injected with an aqueous solution of N-acetyl-D-glucosamine having a concentration of 0.1 g/ml in a dose of 0.1 ml/20 g bodyweight, just after they were fed with methanol. […] The mice of the test group (II) were intra-peritoneally injected with an aqueous solution of N-acetyl-D-glucosamine having a concentration of 0.1 g/ml in a dose of […], just after they were fed with methanol. […] 2. Rogor Poisoning Test 30 Kunming mice were randomly divided into three groups, i.e., 10 mice in control group, 10 mice in test group (I) and 10 mice in test group (II). The mice were orally fed with 10000 times diluted rogor stock solution (commercially obtained from Chongqing Agriculture Chemicals Group, 500 ml/bottle, standard: GB15583-1995) in a dose of 0.5 ml per mouse for consecutive 3 days. […] The mice of the test groups were treated by intra-peritoneal injection of an aqueous solution of N-acetyl-D-glucosamine having a concentration of 5 g/100 ml in a dose of 0.2 ml for the test group (I) and a dose of 2 ml for the test group (II). […] 3. Lead Poisoning Test 30 Kunming mice were made as lead poisoning models by a method of feeding litharge. […] The mice of the test group (I) were treated by intra-peritoneal injection of N-acetyl-D-glucosamine in a dose of 0.2 ml×10% (weight/volume), and the mice of the test group (II) were treated by intra-peritoneal injection with N-acetyl-D-glucosamine in a dose of 2 ml×10% (weight/volume). The death rate of mice was separately 7/10 and 2/10 within 3 days, and the death rate of mice was 1/3 and 0/8 within the following 4 days. […] According to the above examples, N-acetyl-D-glucosamine can effectively eliminate toxic effects of at least toxicants such as metal ions, organophosphorus pesticides, methanol, etc. that have different action mechanisms.

Proteus Mirabilis = assay: Promoting wave test (bio-wave model); type: cell-based; conditions: final concentration 0.5% in LB plate, 37° C., 9 hours, compared with control sample
Text: 1. Experimental Materials and Method:
1.1 Sample: Pure Compound of Formula (I)
1.2 Experimental Materials:
• Strain: Proteus Mirabilis that meets the following biochemical reaction characteristics: dynamics (+), urease (+), lactose (−), glucose (+), H2S (−), phenylalanine deaminase (+). • Culture medium: modified LB culture medium (components: 1% tryptones, 0.5% yeast extract, 1% sodium chloride, 0.1% glucose, 0.002% TTC, and pH=7.2 to 7.4). 1.3 Experimental Method: • Control sample: the Proteus Mirabilis were inoculated at the center of LB plate, and incubated at 37° C. for 9 hours; • Test sample: the compound of formula (I) with a final concentration of 0.5% was added to the LB plate, then the Proteus Mirabilis were inoculated by the same method, and cultured at 37° C. for 9 hours. 2. […] It is anticipated that this wave-promoting function could treat organ lesions caused by toxicants and drugs.

[3] = Long-period toxicity test; type: in vivo; conditions: maximum dosage up to 1 g/kg, treatment and observation for four weeks
Text: as §1

[4] = test system: Kunming mice fed with methanol; assay: Methanol poisoning test; type: in vivo; conditions: 15 mice, i.p. 0.1 g/ml aqueous solution
Experimental: 1. Methanol Poisoning Test
as §2

[5] = test group (I), i.p. 0.2 ml×10% (weight/volume)
[6] = test group (II), i.p. 2 ml×10% (weight/volume)
[7] = test group (I), 0.1 ml/20 g bodyweight
[8] = test group (II), 2 ml/20 g bodyweight

Structure (SMILES): CC(=O)N[C@@H]1[C@@H](O)[C@H](O)[C@@H](CO)O[C@H]1O [compound of formula (I), N-acetyl-D-glucosamine]
- influence on pregnancy, birth, nurse and growth of baby mice (mice): no influence
- dosage at which the acute toxicosis reaction had not appeared (Acute toxicity test): more than 2 g/kg
- mice died ([1]; test group (I), 0.2 ml): 4 mice
- mice died ([1]; test group (II), 2 ml): 1 mouse
- death rate within 3 days [2, 5]: 7/10
- death rate within the following 4 days [2, 5]: 1/3
- death rate within 3 days [2, 6]: 2/10
- death rate within the following 4 days [2, 6]: 0/8
- wave pattern of the colony (bio-wave promoting function) (Proteus Mirabilis): many fine waves on each ring
- intoxication reaction in long-period toxicity test [3]: no intoxication reaction
- mice sequentially died [4, 7]: 5 mice
- mice with obvious psychiatric symptoms [4, 7]: 2 mice
- mice blind after 2 hours ([4]; test group (I), 0.1 ml/20 g bodyweight, just after methanol 0.2 ml/20 g): 8 mice
- blind mice [4, 8]: no mouse was blind
- mice died within 12 hours [4, 8]: 2 mice
- mice with delirium and myasthenia of limbs [4, 8]: 4 mice
